This passage reports pA2 results from ChEMBL document CHEMBL1123932, “Berbanes: a new class of selective alpha 2-adrenoceptor antagonists” (J Med Chem, 1987).

Experiment [1] addresses T1, Adrenergic receptor alpha-1 (Rattus norvegicus, UniProt P15823+P23944+P43140).
T1 sequence (P15823 whole entry): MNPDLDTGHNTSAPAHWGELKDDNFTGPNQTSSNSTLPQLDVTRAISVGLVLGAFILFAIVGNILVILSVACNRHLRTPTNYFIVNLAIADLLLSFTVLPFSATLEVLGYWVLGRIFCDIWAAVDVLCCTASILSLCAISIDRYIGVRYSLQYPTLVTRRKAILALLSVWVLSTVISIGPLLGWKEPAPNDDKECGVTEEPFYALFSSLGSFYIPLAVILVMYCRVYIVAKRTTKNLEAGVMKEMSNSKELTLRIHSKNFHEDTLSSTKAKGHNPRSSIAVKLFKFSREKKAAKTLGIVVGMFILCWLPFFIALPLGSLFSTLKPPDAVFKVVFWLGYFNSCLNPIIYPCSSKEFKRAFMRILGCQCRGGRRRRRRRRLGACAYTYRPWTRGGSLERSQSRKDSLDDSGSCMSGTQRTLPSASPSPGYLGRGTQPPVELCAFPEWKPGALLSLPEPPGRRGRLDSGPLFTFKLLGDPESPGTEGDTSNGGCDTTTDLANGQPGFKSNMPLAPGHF
T1 sequence (P23944 whole entry): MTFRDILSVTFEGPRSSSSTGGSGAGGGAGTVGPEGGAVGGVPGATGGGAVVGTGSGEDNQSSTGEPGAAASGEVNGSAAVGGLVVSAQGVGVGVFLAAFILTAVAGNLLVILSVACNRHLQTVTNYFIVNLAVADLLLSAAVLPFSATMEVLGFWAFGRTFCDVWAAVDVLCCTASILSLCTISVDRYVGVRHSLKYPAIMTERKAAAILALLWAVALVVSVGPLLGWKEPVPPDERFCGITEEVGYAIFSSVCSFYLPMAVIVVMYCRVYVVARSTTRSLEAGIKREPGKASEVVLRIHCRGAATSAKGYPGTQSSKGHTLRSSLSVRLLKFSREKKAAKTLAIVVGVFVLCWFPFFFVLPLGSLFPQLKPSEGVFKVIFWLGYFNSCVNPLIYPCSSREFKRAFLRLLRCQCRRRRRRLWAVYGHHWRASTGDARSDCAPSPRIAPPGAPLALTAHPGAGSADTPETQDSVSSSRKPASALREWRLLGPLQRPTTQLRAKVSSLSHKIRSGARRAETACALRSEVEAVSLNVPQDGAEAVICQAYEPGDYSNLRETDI
T1 sequence (P43140 whole entry): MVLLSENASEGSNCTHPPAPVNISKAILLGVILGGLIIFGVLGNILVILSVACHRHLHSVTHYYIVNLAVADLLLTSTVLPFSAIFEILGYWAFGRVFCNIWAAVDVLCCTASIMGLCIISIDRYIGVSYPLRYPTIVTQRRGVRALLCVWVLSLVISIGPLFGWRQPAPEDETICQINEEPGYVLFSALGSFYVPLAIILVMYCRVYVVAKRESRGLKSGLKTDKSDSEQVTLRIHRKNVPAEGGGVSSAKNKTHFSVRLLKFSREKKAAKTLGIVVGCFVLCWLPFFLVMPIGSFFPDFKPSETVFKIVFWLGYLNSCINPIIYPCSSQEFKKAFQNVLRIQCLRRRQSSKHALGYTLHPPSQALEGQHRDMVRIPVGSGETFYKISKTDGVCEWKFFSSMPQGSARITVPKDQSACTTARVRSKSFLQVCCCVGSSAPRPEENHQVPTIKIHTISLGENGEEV
The experiment is described as follows: Antagonistic activity against postsynaptic Alpha-1 adrenergic receptor in isolated rat vas deferens using (-)-phenylephrine as agonist. The format is functional, tissue-based.

Experiment [2] addresses Adrenergic receptor alpha-2 (Cavia porcellus). The experiment is described as follows: Antagonistic activity against adrenergic alpha-2 receptor in longitudinal muscle strip of the guinea pig ileum using l-norepinephrine as agonist.
Experiment [3] concerns the target T2, Adrenergic receptor alpha-2 (Rattus norvegicus, UniProt P22086+P19328+P22909).
T2 sequence (P22086 whole entry): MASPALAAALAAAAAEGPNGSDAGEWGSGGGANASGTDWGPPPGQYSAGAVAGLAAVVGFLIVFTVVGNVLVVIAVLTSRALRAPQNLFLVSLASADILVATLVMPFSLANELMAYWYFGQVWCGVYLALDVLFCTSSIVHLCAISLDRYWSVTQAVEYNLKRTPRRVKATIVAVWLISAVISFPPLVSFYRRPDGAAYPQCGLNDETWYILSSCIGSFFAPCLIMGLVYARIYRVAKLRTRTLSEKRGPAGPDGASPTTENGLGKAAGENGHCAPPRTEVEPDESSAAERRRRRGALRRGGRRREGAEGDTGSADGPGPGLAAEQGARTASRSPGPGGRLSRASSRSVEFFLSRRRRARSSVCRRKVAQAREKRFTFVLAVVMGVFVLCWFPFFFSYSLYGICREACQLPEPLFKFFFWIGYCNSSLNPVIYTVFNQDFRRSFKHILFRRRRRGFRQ
T2 sequence (P19328 whole entry): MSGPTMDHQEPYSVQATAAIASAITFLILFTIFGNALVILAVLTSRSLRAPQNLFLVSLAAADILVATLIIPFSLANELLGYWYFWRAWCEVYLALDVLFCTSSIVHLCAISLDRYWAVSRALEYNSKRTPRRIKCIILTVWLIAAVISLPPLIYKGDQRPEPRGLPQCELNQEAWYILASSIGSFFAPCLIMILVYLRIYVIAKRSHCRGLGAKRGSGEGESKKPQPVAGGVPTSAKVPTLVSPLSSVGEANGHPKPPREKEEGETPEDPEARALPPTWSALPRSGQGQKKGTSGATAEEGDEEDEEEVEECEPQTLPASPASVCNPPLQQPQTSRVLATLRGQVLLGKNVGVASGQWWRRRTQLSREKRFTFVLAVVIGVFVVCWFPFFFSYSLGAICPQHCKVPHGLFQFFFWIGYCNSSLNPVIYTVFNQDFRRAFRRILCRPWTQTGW
T2 sequence (P22909 whole entry): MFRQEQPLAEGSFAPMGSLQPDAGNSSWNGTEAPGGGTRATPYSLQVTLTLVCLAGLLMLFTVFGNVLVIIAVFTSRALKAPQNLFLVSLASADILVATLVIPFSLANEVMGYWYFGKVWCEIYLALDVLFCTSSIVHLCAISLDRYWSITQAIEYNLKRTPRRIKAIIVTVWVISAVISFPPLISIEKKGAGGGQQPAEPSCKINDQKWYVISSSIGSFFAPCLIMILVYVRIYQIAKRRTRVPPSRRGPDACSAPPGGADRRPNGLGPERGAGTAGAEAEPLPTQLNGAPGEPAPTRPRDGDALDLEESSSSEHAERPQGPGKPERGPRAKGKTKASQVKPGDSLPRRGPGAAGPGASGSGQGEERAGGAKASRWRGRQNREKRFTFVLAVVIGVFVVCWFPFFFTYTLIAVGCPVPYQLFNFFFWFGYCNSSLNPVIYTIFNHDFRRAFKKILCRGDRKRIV
The experiment is described as follows: Antagonistic activity against presynaptic alpha-2 adrenergic receptor in isolated rat vas deferens using xylazine as agonist. The format is functional, tissue-based.

Molecules are shown by their SMILES.

The molecule `OC[C@@H]1[C@H]2C[C@H]3c4cc5c(cc4CCN3C[C@@H]2CC[C@H]1O)OCO5` registered a pA2 in experiment [1] of 5.25.

Turning to `COc1cc2c(cc1OC)[C@@H]1C[C@@H]3C[C@H](O)CC[C@@H]3CN1CC2`, the pA2 in experiment [2] is less than 4; in experiment [1], less than 4; in experiment [3] it was 6.31.

In experiment [1], `OC[C@@H]1C[C@@H]2CN3CCc4cc5c(cc4[C@@H]3C[C@@H]2C[C@@H]1O)OCO5` displayed a pA2 of less than 4.

With `COC(=O)[C@@H]1C[C@@H]2CN3CCc4cc5c(cc4[C@@H]3C[C@@H]2C[C@@H]1O)OCO5`, the pA2 in experiment [1] is on record as 4.8.

Regarding `Oc1cc2c(cc1O)[C@@H]1C[C@@H]3C[C@H](O)CC[C@@H]3CN1CC2`, the pA2 in experiment [1] was less than 4; in experiment [3], 5.74.

In the case of `N#C[C@@H]1C[C@@H]2CN3CCc4cc5c(cc4[C@@H]3C[C@@H]2C[C@@H]1O)OCO5`, the pA2 in experiment [2] is 6.67; in experiment [1], less than 4; in experiment [3] it was 6.1.

For `CC(=O)O[C@@H]1CC[C@@H]2CN3CCc4cc5c(cc4[C@@H]3C[C@@H]2C1)OCO5`, the pA2 in experiment [2] is 8.21; in experiment [1], 4.55; in experiment [3], 7.3.

In experiment [1], `COC(=O)[C@H]1C[C@H]2CN3CCc4cc5c(cc4[C@@H]3C[C@@H]2C[C@@H]1O)OCO5` came in with a pA2 of 5.98.

As to `COc1cc2c(cc1OC)[C@@H]1C[C@@H]3C[C@H](OC(C)=O)CC[C@@H]3CN1CC2`, the values for the pA2 in experiment [2], in experiment [1] and in experiment [3] were 6.19, 4.54 and 6.61, respectively.

For the molecule `CCOC(=O)[C@H]1[C@H]2C[C@H]3c4cc5c(cc4CCN3C[C@H]2CC[C@H]1O)OCO5`, in experiment [1], the pA2 is listed as 5.51.

Regarding `CCOc1cc2c(cc1OCC)[C@@H]1C[C@@H]3C[C@H](O)CCC3CN1CC2` (stereo partly specified), the pA2 in experiment [1] was less than 4; in experiment [3], 6.41.

The pA2 is the negative logarithm of the molar antagonist concentration that doubles the agonist concentration needed for the same response. A higher pA2 goes with higher antagonist potency.
